Experimental data reported in US11992009B2, “Pesticide-containing soil disinfestation material without use of fumigant” (priority 2020, dated 2024).

Experiments:
[1] = Lab soil pesticide release testing; type: physicochemical; conditions: for Pesticide content of fumigant-free soil disinfestation materials after set time on Soil: HPLC, LoQ 0.25 g/ha
Method: 200 g of dry soil is placed in rectangular thin layer chromatography chamber of 27×7×26 cm with lid and 20 g water is added to the soil. A 58 cm^2 of a polymer composite material sample is placed on the humid soil and weight down by a glass plate with a contact pressure of […] to simulate similar contact conditions with the soil as in the field after application of the polymer composite material like a plastic mulch film. […]
After the set contact time with the soil the film sample is removed, moisture is dabbed off, loose dirt is brushed off and then the sample is dried at 60 C in an oven for 10 min. After drying the sample is cut into 100 small squares (each about 7.5 by 7.5 mm), placed in a small glass flask with 5 gram of Methanol and a magnetic stir bar. The flask is capped, stirred for 4 hours and the methanolic solution is then analyzed by HPLC. The difference between the initial and remaining amount of pesticide is released to the soil during the set time. The lowest concentration of analyte that can be determined with an acceptable repeatability and trueness by the method is 0.025 mg/m^2=0.25 g/ha Limit of quantitation (LoQ).

[2] = cited from earlier work
[3] = Example 1 material, 0 days (initial content)
[4] = Example 1 material, 7 days on humid soil
[5] = Example 1 material, 14 days on humid soil
[6] = Example 1 material, 21 days on humid soil
[7] = Example 2 material, 0 days (initial content)
[8] = Example 2 material, 7 days on humid soil
[9] = Example 2 material, 14 days on humid soil
[10] = Example 2 material, 21 days on humid soil
[11] = Example 5 material, 0 days (initial content)
[12] = Example 5 material, 7 days on humid soil
[13] = Example 5 material, 14 days on humid soil
[14] = Example 5 material, 21 days on humid soil
[15] = Example 4 material, 0 days (initial content)
[16] = Example 4 material, 7 days on humid soil
[17] = Example 4 material, 14 days on humid soil
[18] = Example 4 material, 21 days on humid soil
[19] = Example 3 material, 0 days (initial content)
[20] = Example 3 material, 7 days on humid soil
[21] = Example 3 material, 14 days on humid soil
[22] = Example 3 material, 21 days on humid soil

SMILES | Pesticide content of fumigant-free soil disinfestation materials after set time on Soil [1, 3] | Pesticide content of fumigant-free soil disinfestation materials after set time on Soil [1, 4] | Pesticide content of fumigant-free soil disinfestation materials after set time on Soil [1, 5] | Pesticide content of fumigant-free soil disinfestation materials after set time on Soil [1, 6] | Pesticide content of fumigant-free soil disinfestation materials after set time on Soil [1, 7] | Pesticide content of fumigant-free soil disinfestation materials after set time on Soil [1, 8] | Pesticide content of fumigant-free soil disinfestation materials after set time on Soil [1, 9] | Pesticide content of fumigant-free soil disinfestation materials after set time on Soil [1, 10] | Pesticide content of fumigant-free soil disinfestation materials after set time on Soil [1, 15] | Pesticide content of fumigant-free soil disinfestation materials after set time on Soil [1, 16] | Pesticide content of fumigant-free soil disinfestation materials after set time on Soil [1, 17] | Pesticide content of fumigant-free soil disinfestation materials after set time on Soil [1, 18] | Pesticide content of fumigant-free soil disinfestation materials after set time on Soil [1, 19] | Pesticide content of fumigant-free soil disinfestation materials after set time on Soil [1, 20] | Pesticide content of fumigant-free soil disinfestation materials after set time on Soil [1, 21] | Pesticide content of fumigant-free soil disinfestation materials after set time on Soil [1, 22] | further results
CO/C=C(/C(=O)OC)c1ccccc1Oc1cc(Oc2ccccc2C#N)ncn1 [Azoxystrobin] | 96 g/ha | 12 g/ha | 0 g/ha | 0 g/ha | 96 g/ha | 9 g/ha | 0 g/ha | 0 g/ha | – | – | – | – | – | – | – | – | Pesticide content of fumigant-free soil disinfestation materials after set time on Soil [1, 11]: 10 g/ha; Pesticide content of fumigant-free soil disinfestation materials after set time on Soil [1, 12]: 0 g/ha; Pesticide content of fumigant-free soil disinfestation materials after set time on Soil [1, 13]: 0 g/ha; Pesticide content of fumigant-free soil disinfestation materials after set time on Soil [1, 14]: 0 g/ha
N#Cc1c[nH]cc1-c1cccc2c1OC(F)(F)O2 [Fludioxonil] | 244 g/ha | 57 g/ha | 23 g/ha | 0 g/ha | 244 g/ha | 53 g/ha | 17 g/ha | 0 g/ha | – | – | – | – | – | – | – | – | Release from coated film in lab release test (FIG. 3) ([1]; at 7, 14 and 21 days, before planting): complete release; Water solubility [2]: hardly water soluble
O=S(=O)(CCC(F)=C(F)F)c1ncc(Cl)s1 [Fluensulfone] | – | – | – | – | – | – | – | – | 2807 g/ha | 0 g/ha | 0 g/ha | 0 g/ha | – | – | – | – | –
O=C(NCc1ncc(C(F)(F)F)cc1Cl)c1c(Cl)cccc1Cl [Fluopicolide] | – | – | – | – | – | – | – | – | 450 g/ha | 60 g/ha | 30 g/ha | 15 g/ha | – | – | – | – | –
O=C(NCCc1ncc(C(F)(F)F)cc1Cl)c1ccccc1C(F)(F)F [Fluopyram] | – | – | – | – | – | – | – | – | – | – | – | – | 91 g/ha | 0 g/ha | 0 g/ha | 0 g/ha | Pesticide content of fumigant-free soil disinfestation materials after set time on Soil [1, 11]: 350 g/ha; Pesticide content of fumigant-free soil disinfestation materials after set time on Soil [1, 12]: 14 g/ha; Pesticide content of fumigant-free soil disinfestation materials after set time on Soil [1, 13]: 0 g/ha; Pesticide content of fumigant-free soil disinfestation materials after set time on Soil [1, 14]: 0 g/ha
COC(=O)c1c(Cl)nn(C)c1S(=O)(=O)NC(=O)Nc1nc(OC)cc(OC)n1 [Halosulfuron-methyl] | 35 g/ha | 0 g/ha | 0 g/ha | 0 g/ha | 35 g/ha | 0 g/ha | 0 g/ha | 0 g/ha | – | – | – | – | 35 g/ha | 0 g/ha | 0 g/ha | 0 g/ha | Pesticide content of fumigant-free soil disinfestation materials after set time on Soil [1, 11]: 40 g/ha; Pesticide content of fumigant-free soil disinfestation materials after set time on Soil [1, 12]: 0 g/ha; Pesticide content of fumigant-free soil disinfestation materials after set time on Soil [1, 13]: 0 g/ha; Pesticide content of fumigant-free soil disinfestation materials after set time on Soil [1, 14]: 0 g/ha
COCC(=O)N(c1c(C)cccc1C)[C@H](C)C(=O)OC [Mefenoxam] | – | – | – | – | – | – | – | – | 281 g/ha | 19 g/ha | 0 g/ha | 0 g/ha | – | – | – | – | –
COCC(=O)N(c1c(C)cccc1C)C(C)C(=O)OC (stereo not shown) [Metalaxyl] | 936 g/ha | 12 g/ha | 1 g/ha | 0 g/ha | 936 g/ha | 15 g/ha | 0 g/ha | 0 g/ha | – | – | – | – | – | – | – | – | –
CSc1nnc(C(C)(C)C)c(=O)n1N [Metribuzin] | – | – | – | – | – | – | – | – | 375 g/ha | 0 g/ha | 0 g/ha | 0 g/ha | – | – | – | – | –
CNC(=O)O/N=C(\SC)C(=O)N(C)C [Oxamyl] | 1800 g/ha | 0 g/ha | 0 g/ha | 0 g/ha | 1800 g/ha | 0 g/ha | 0 g/ha | 0 g/ha | – | – | – | – | – | – | – | – | –
Cc1nn(-c2cc(NS(C)(=O)=O)c(Cl)cc2Cl)c(=O)n1C(F)F [Sulfentrazone] | – | – | – | – | – | – | – | – | – | – | – | – | 202 g/ha | 15 g/ha | 0 g/ha | 0 g/ha | –
CC(C)(C)C(O)(CCc1ccc(Cl)cc1)Cn1cncn1 (stereo not shown) [Tebuconazole] | – | – | – | – | – | – | – | – | – | – | – | – | 954 g/ha | 125 g/ha | 45 g/ha | 8 g/ha | –
CON=C(C(=O)OC)c1ccccc1CON=C(C)c1cccc(C(F)(F)F)c1 [Trifloxystrobin] | – | – | – | – | – | – | – | – | – | – | – | – | 238 g/ha | 65 g/ha | 35 g/ha | 3 g/ha | –
CCc1cccc(C)c1N(C(=O)CCl)[C@@H](C)COC [s-metolachlor] | – | – | – | – | – | – | – | – | 800 g/ha | 5 g/ha | 0 g/ha | 0 g/ha | – | – | – | – | –
